{"source": "ChEMBL document CHEMBL4346719", "about": "“Discovery of novel acylhydrazone neuraminidase inhibitors” (Eur J Med Chem, 2019)"}
{"tested_on": "not listed separately", "test": "Inhibition of influenza virus A/WSN/1933 (H1N1) neuraminidase using MUNANA as substrate preincubated for 10 mins followed by substrate addition and measured for 15 mins by fluorescence assay", "design": "species or system Influenza A virus ([…])", "units": {"IC50": "nM"}}
{"smiles": "CC(=O)N[C@H]1[C@H]([C@H](O)[C@H](O)CO)OC(P(=O)(O)O)=C[C@@H]1NC(=N)N", "IC50": 0.6}
{"target": "Neuraminidase (Influenza A virus, UniProt B4URF0)", "sequence (B4URF0 whole entry)": "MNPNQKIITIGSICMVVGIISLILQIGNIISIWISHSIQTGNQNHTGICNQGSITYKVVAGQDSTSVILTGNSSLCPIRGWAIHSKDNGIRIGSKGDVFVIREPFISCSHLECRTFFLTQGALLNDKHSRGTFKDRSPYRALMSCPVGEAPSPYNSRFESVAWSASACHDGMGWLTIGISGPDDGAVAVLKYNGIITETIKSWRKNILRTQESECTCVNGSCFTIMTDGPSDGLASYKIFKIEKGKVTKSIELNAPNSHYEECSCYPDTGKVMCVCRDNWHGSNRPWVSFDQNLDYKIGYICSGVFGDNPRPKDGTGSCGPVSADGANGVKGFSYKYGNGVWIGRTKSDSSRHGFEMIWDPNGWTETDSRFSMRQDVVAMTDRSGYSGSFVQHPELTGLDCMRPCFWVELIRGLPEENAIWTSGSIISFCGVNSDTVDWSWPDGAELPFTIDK", "units": {"IC50": "µM"}}
{"smiles": "COc1ccccc1/C=N/NC(=O)C(=O)NCCCN1CCOCC1", "IC50": 7.1}
{"smiles": "COc1ccc(/C=N/NC(=O)C(=O)NCCCN2CCOCC2)cc1OC", "IC50": 2.37}
{"smiles": "COc1cc(/C=N/NC(=O)C(=O)NCCCN2CCOCC2)ccc1O", "IC50": 4.67}
{"smiles": "COc1cc(/C=N/NC(=O)C(=O)NCCCN2CCOCC2)cc(OC)c1OC", "IC50": 2.61}
{"smiles": "O=C(NCCCN1CCOCC1)C(=O)N/N=C/c1ccccc1O", "IC50": 6.48}
{"smiles": "COc1cc(/C=N/NC(=O)C(=O)NCCCN2CCOCC2)cc(OC)c1O", "IC50": 3.15}
{"smiles": "O=C(NCCCN1CCOCC1)C(=O)N/N=C/c1ccc(O)c([N+](=O)[O-])c1", "IC50": 4.37}
